Assay results published in ChEMBL document CHEMBL3045135, “Synthesis, characterization and pharmacological evaluation of (E)-N-(substituted-benzylidene)isonicotinohydrazide derivatives as potent anticonvulsant agents” (Med Chem Res, 2012).
Activity calls are given as the source filed them. The rule behind the calls is not given here.

Columns and labels:
Mus musculus [1] = assay: Anticonvulsant activity in Mus musculus C57B/6 (mouse) assessed as protection against 6 Hz psychomotor seizure at 100 mg/kg, ip after 0.25 to 4 hr by minimal clonic seizure test; assay type: functional, organism-based; parameters: dose 100 mg/kg
Mus musculus [2] = assay: Neurotoxicity in Mus musculus C57B/6 (mouse) assessed as minimal motor impairment at 300 mg/kg, ip after 4 hr; assay type: toxicity, organism-based; parameters: dose 300 mg/kg, route intraperitoneal; settings: in vivo
Mus musculus [3] = assay: Neurotoxicity in Mus musculus C57B/6 (mouse) assessed as minimal motor impairment at 300 mg/kg, ip after 0.5 hr; assay type: toxicity, organism-based; parameters: dose 300 mg/kg, route intraperitoneal; settings: in vivo
Mus musculus [4] = assay: Anticonvulsant activity in Mus musculus C57B/6 (mouse) assessed as protection against subcutaneous pentylene tetrazole-induced seizure at 300 mg/kg, ip after 4 hr; assay type: functional, organism-based; parameters: dose 300 mg/kg
Mus musculus [5] = assay: Anticonvulsant activity in Mus musculus C57B/6 (mouse) assessed as protection against subcutaneous pentylene tetrazole-induced seizure at 300 mg/kg, ip after 0.5 hr; assay type: functional, organism-based; parameters: dose 300 mg/kg
Mus musculus [6] = assay: Anticonvulsant activity in Mus musculus C57B/6 (mouse) assessed as protection against maximal electroshock-induced seizure at 300 mg/kg, ip after 4 hr; assay type: functional, organism-based; parameters: dose 300 mg/kg
Mus musculus [7] = assay: Anticonvulsant activity in ip dosed Mus musculus C57B/6 (mouse) assessed as protection against maximal electroshock-induced seizure after 0.5 hr; assay type: functional; settings: C57B/6, ip, read-out: MED
Mus musculus [8] = assay: Anticonvulsant activity in ip dosed Mus musculus C57B/6 (mouse) assessed as protection against maximal electroshock-induced seizure after 4 hr; assay type: functional; settings: C57B/6, ip, read-out: MED
[9] = Neurotoxicity in ip dosed Mus musculus C57B/6 (mouse) assessed as minimal motor impairment after 4 hr; assay type: toxicity, organism-based; settings: in vivo
Mus musculus [10] = assay: Anticonvulsant activity in Mus musculus C57B/6 (mouse) assessed as protection against maximal electroshock-induced seizure at 300 mg/kg, ip after 0.5 hr; assay type: functional, organism-based; parameters: dose 300 mg/kg
Mus musculus [11] = assay: Anticonvulsant activity in ip dosed Mus musculus C57B/6 (mouse) assessed as protection against subcutaneous pentylene tetrazole-induced seizure after 0.5 hr; assay type: functional; settings: C57B/6, 0.5 h, read-out: MED

With `CCOc1ccccc1/C=N/NC(=O)c1ccncc1` the Activity (Mus musculus [1]) was “Active”, the Activity (Mus musculus [2]) was “Non-toxic” and the Activity (Mus musculus [3]) was “Non-toxic”. The Activity (Mus musculus [4]) was “inactive”, the Activity (Mus musculus [5]) was “inactive” and the Activity (Mus musculus [6]) was “inactive”. The minimal effective dose (Mus musculus [7]) was 300 mg/kg.
With `O=C1NC(=O)C(c2ccccc2)(c2ccccc2)N1` [PHENYTOIN] the Activity (Mus musculus [4]) was “inactive”, the Activity (Mus musculus [5]) was “inactive” and the minimal effective dose (Mus musculus [8]) was 30 mg/kg. The minimal effective dose (Mus musculus [7]) was 30 mg/kg.
With `O=C(N/N=C(\c1ccccc1)c1ccc(Br)cc1)c1ccncc1` the Activity (Mus musculus [3]) was “Non-toxic”, the MTD at 4 h [9] was 100 mg/kg and the Activity (Mus musculus [4]) was “inactive”. For the same compound, the Activity (Mus musculus [5]) was “inactive”, the Activity (Mus musculus [6]) was “inactive” and the Activity (Mus musculus [10]) was “inactive”.
With `O=C(N/N=C/c1cccc(F)c1)c1ccncc1` the Activity (Mus musculus [1]) was “Active”, the Activity (Mus musculus [2]) was “Non-toxic” and the Activity (Mus musculus [3]) was “Non-toxic”. The Activity (Mus musculus [4]) was “inactive”, the Activity (Mus musculus [5]) was “inactive” and the Activity (Mus musculus [6]) was “inactive”. The minimal effective dose (Mus musculus [7]) was 300 mg/kg.
In the case of `O=C(N/N=C/c1ccccc1)c1ccncc1` [N'-BENZYLIDENE ISONICOTINOHYDRAZIDE], the Activity (Mus musculus [1]) is reported as “Active”, the Activity (Mus musculus [2]) is reported as “Non-toxic” and the Activity (Mus musculus [3]) is reported as “Non-toxic”. The Activity (Mus musculus [4]) was “inactive”, the Activity (Mus musculus [5]) was “inactive” and the Activity (Mus musculus [6]) was “inactive”. It also gave a minimal effective dose (Mus musculus [7]) of 300 mg/kg.
With `C/C(=N\NC(=O)c1ccncc1)c1ccccc1` [ISONICOTINOYLHYDRAZONE OF ACETOPHENONE] the MTD at 4 h [9] was 300 mg/kg, the Activity (Mus musculus [4]) was “inactive” and the Activity (Mus musculus [5]) was “inactive”. The Activity (Mus musculus [6]) was “inactive” and the Activity (Mus musculus [10]) was “inactive”.
With `O=C(NN=C(c1ccccc1)c1ccccc1)c1ccncc1` the Activity (Mus musculus [1]) was “Active”, the Activity (Mus musculus [2]) was “Non-toxic” and the Activity (Mus musculus [3]) was “Non-toxic”. The Activity (Mus musculus [4]) was “inactive”, the minimal effective dose (Mus musculus [11]) was 300 mg/kg and the Activity (Mus musculus [6]) was “inactive”. The minimal effective dose (Mus musculus [7]) was 300 mg/kg.
For `CN(C)c1ccc(/C=N/NC(=O)c2ccncc2)cc1` [N'-(4-DIMETHYLAMINOBENZYLIDENE)ISONICOTINOHYDRAZIDE], the Activity (Mus musculus [3]) was “Non-toxic”, the MTD at 4 h [9] was 300 mg/kg and the Activity (Mus musculus [4]) was “inactive”. The Activity (Mus musculus [5]) was “inactive”, the Activity (Mus musculus [6]) was “inactive” and the Activity (Mus musculus [10]) was “inactive”.
